The target in data set [1] is Alpha-1A adrenergic receptor (Homo sapiens, UniProt P35348). As to the kind of experiment: Binding affinity to adrenergic alpha1A receptor (unknown origin).
The target of data set [2] is 5-hydroxytryptamine receptor 1A (Homo sapiens, UniProt P08908). In words: Binding affinity to 5-HT1A receptor (unknown origin).
Another data set concerns the target Mu-type opioid receptor (Homo sapiens, UniProt P35372). As to the kind of experiment: Binding affinity to mu opioid receptor (unknown origin).
For data set [3], the target named is Somatostatin receptor type 4 (Homo sapiens, UniProt P31391). In words: Binding affinity to SST4 receptor (unknown origin).
In data set [4] the target is TGF-beta receptor type-2 (Homo sapiens) (UniProt P37173). In words: Inhibition of TGFBR2 (unknown origin) at 1 uM after 1 hr.
The target in the next data set is Bile salt export pump (Homo sapiens, UniProt O95342). In words: Inhibition of BSEP (unknown origin).
Data set [5] deals with Muscarinic acetylcholine receptor M1 (Homo sapiens, UniProt P11229). As to the kind of experiment: Binding affinity to muscarinic M1 receptor (unknown origin).
In data set [6] the target is Voltage-gated inwardly rectifying potassium channel KCNH2 (Homo sapiens, UniProt Q12809). In words: Inhibition of human ERG.
The next data set has as its system Mus musculus. As to the kind of experiment: In vivo inhibition of tankyrase-mediated axin2 gene expression in tumor of athymic nude mouse xenografted with human DLD1 cells at 200 mg/kg, po bid for 3 days by STF assay. It counts as functional, organism-based. Set-up: dose 200 mg/kg. Conditions: DLD-1. (Xenograft models place foreign cells or tissue in a host animal.)

The target of a further data set is T1, Tankyrase 1/2 (Homo sapiens, UniProt Q9H2K2+O95271).
T1 sequence (Q9H2K2 whole entry): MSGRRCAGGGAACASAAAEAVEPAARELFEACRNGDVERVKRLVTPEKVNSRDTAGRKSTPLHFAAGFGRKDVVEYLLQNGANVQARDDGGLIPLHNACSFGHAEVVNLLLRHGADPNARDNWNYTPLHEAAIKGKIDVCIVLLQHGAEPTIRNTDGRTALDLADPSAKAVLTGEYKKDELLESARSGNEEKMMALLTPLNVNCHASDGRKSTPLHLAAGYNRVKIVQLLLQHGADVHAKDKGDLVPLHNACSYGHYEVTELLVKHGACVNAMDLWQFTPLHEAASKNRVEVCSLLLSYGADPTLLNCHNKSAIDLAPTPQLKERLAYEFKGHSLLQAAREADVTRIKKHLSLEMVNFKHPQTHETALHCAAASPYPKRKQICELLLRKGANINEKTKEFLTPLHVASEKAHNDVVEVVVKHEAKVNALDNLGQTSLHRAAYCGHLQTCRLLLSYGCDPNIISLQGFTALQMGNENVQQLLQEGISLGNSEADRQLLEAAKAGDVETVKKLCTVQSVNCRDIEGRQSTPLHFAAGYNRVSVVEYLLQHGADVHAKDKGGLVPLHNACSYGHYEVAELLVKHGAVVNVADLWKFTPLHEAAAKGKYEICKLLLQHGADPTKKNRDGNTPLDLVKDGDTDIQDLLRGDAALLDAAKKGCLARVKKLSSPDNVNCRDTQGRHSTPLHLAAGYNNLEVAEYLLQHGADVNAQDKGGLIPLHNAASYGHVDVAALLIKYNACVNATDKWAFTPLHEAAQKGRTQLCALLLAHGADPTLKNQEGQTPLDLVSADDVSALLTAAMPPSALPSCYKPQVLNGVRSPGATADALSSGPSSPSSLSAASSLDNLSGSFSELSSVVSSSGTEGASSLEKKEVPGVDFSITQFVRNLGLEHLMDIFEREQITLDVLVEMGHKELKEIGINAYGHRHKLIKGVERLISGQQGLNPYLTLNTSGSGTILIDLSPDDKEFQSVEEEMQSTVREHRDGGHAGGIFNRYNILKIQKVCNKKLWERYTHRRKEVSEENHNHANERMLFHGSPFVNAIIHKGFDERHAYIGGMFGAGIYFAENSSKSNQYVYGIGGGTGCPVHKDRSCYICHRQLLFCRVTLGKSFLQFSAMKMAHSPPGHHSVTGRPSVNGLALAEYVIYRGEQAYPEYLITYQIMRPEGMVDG
T1 sequence (O95271 whole entry): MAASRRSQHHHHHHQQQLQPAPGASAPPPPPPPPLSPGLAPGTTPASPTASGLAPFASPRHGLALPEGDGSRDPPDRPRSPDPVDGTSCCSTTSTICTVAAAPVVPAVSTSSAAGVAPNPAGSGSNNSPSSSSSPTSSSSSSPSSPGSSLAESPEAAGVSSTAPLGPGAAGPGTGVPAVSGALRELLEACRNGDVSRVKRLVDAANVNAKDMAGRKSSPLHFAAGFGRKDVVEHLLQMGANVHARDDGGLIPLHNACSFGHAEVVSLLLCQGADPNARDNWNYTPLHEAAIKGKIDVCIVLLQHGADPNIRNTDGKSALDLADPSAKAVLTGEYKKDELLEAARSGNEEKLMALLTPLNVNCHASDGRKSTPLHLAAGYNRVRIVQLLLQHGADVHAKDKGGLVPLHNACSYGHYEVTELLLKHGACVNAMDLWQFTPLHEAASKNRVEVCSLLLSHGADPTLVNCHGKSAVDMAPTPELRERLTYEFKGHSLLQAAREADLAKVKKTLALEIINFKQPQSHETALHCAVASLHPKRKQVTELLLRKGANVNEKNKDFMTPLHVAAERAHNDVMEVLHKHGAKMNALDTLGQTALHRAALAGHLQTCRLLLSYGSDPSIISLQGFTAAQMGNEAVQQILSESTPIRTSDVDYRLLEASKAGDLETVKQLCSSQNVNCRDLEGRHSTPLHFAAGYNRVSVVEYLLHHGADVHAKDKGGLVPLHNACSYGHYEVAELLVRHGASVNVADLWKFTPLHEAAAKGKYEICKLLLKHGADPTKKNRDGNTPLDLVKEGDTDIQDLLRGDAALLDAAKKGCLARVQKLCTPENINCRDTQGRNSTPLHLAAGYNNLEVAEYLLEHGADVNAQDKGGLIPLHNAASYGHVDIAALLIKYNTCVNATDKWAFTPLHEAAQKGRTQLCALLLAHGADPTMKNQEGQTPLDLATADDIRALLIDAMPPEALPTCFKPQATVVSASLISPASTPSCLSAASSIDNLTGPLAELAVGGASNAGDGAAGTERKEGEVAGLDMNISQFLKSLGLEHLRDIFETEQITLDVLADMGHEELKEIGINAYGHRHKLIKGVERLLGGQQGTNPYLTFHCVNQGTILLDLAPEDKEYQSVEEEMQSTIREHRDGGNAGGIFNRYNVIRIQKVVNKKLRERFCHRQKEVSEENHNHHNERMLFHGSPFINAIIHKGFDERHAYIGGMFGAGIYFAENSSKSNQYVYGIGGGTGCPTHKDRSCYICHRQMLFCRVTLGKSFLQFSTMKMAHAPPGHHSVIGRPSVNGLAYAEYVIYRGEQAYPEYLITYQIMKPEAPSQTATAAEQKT
As to the kind of experiment: Inhibition of tankyrase in human SW480 cells assessed as degradation of total beta-catenin after 40 to 48 hrs. It is filed as cell-based.

A short description of data set [7]: Terminal plasma concentration in athymic nude mouse xenografted with human DLD1 cells at 200 mg/kg, po bid for 3 days. Set-up: dose 200 mg/kg, route oral. It is filed as ADME, organism-based, DLD-1. The settings on record: read-out: Cp(T).

pIC50: −log10 of the molar value. Activity calls are given as the source filed them. The calls are words filed in the database; no cut-off is given here.

This passage reports IC50, inhibition and concentration results from ChEMBL document CHEMBL3098003, “Structure-based design of 2-aminopyridine oxazolidinones as potent and selective tankyrase inhibitors” (ACS Med Chem Lett, 2013).

Chain of TGF-beta receptor type-2 (Homo sapiens) (P37173 whole entry): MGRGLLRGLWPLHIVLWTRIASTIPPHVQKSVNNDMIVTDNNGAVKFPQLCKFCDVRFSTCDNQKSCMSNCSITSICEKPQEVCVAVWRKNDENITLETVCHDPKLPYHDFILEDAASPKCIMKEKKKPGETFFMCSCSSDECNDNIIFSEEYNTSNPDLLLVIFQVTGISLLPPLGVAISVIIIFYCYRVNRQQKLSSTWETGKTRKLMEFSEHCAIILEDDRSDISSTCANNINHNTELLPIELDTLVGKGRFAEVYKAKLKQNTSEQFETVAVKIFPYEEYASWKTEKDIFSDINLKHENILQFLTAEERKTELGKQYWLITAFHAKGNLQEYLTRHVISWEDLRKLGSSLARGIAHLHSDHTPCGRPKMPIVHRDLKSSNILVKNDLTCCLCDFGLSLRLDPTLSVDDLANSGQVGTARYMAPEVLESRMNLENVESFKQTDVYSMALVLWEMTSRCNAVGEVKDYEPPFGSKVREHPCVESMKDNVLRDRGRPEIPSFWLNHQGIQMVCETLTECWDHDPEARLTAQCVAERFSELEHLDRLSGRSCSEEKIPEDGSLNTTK
Chain of 5-hydroxytryptamine receptor 1A (P08908 whole entry): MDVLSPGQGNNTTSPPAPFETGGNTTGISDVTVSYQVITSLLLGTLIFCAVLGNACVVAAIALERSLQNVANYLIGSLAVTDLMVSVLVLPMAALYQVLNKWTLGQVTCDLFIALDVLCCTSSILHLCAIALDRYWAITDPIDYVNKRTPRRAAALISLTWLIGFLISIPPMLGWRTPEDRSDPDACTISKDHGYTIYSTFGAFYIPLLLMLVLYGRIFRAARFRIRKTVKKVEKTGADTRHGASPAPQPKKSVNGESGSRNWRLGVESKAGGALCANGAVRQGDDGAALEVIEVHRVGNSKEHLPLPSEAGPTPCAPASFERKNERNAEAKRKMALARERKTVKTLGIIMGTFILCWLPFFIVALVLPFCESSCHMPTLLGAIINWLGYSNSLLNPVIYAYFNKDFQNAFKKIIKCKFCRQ
Chain of Somatostatin receptor type 4 (P31391 whole entry): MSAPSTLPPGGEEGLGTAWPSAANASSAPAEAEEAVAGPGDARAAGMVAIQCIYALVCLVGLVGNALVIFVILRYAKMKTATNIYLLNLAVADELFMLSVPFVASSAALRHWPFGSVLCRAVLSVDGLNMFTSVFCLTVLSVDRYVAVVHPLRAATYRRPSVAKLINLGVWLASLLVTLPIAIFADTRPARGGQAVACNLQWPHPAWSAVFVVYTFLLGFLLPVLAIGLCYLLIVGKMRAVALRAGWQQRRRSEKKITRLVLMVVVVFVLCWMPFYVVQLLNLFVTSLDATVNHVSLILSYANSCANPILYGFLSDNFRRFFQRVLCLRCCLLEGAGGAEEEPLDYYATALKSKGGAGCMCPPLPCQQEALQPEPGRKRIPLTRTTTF
Chain of Voltage-gated inwardly rectifying potassium channel KCNH2 (Q12809 whole entry): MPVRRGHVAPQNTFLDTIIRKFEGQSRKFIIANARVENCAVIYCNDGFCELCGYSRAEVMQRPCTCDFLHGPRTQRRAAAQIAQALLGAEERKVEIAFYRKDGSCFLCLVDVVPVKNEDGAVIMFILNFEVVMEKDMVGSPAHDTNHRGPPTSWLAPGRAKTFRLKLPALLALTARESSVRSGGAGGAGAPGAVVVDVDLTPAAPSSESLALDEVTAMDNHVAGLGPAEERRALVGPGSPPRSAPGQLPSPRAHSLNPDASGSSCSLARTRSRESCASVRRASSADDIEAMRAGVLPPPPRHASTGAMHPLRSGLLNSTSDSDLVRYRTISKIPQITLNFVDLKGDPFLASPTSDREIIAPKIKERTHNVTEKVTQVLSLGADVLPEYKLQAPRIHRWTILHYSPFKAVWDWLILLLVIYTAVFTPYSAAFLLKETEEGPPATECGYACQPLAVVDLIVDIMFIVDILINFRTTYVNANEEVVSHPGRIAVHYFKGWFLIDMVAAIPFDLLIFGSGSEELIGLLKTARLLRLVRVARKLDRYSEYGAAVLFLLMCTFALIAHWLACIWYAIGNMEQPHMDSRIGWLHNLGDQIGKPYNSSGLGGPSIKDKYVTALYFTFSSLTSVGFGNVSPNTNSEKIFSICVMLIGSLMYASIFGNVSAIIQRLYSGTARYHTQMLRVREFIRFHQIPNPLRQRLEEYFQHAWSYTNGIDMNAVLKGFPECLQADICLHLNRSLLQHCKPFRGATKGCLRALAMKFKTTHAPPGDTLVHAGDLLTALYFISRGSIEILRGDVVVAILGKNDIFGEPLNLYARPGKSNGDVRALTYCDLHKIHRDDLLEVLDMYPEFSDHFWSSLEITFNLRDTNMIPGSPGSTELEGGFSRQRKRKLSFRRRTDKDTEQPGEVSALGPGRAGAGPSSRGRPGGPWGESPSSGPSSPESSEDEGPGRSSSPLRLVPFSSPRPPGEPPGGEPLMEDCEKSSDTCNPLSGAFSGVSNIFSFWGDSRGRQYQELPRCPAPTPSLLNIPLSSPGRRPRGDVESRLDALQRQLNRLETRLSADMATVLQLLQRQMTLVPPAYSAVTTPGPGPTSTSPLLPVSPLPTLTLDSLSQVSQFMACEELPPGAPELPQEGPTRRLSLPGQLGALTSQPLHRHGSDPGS
Chain of Muscarinic acetylcholine receptor M1 (P11229 whole entry): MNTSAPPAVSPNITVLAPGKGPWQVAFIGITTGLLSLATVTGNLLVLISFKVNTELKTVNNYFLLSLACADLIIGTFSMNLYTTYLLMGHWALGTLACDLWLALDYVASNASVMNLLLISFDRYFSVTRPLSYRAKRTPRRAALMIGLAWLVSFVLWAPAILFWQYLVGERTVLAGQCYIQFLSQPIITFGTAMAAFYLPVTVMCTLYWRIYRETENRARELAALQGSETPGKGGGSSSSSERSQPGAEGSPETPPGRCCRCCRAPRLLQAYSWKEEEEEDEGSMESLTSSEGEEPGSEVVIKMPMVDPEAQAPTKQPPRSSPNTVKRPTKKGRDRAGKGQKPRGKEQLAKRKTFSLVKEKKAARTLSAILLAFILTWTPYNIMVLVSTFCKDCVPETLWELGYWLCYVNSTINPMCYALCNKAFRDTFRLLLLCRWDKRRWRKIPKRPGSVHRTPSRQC
Chain of Bile salt export pump (O95342 whole entry): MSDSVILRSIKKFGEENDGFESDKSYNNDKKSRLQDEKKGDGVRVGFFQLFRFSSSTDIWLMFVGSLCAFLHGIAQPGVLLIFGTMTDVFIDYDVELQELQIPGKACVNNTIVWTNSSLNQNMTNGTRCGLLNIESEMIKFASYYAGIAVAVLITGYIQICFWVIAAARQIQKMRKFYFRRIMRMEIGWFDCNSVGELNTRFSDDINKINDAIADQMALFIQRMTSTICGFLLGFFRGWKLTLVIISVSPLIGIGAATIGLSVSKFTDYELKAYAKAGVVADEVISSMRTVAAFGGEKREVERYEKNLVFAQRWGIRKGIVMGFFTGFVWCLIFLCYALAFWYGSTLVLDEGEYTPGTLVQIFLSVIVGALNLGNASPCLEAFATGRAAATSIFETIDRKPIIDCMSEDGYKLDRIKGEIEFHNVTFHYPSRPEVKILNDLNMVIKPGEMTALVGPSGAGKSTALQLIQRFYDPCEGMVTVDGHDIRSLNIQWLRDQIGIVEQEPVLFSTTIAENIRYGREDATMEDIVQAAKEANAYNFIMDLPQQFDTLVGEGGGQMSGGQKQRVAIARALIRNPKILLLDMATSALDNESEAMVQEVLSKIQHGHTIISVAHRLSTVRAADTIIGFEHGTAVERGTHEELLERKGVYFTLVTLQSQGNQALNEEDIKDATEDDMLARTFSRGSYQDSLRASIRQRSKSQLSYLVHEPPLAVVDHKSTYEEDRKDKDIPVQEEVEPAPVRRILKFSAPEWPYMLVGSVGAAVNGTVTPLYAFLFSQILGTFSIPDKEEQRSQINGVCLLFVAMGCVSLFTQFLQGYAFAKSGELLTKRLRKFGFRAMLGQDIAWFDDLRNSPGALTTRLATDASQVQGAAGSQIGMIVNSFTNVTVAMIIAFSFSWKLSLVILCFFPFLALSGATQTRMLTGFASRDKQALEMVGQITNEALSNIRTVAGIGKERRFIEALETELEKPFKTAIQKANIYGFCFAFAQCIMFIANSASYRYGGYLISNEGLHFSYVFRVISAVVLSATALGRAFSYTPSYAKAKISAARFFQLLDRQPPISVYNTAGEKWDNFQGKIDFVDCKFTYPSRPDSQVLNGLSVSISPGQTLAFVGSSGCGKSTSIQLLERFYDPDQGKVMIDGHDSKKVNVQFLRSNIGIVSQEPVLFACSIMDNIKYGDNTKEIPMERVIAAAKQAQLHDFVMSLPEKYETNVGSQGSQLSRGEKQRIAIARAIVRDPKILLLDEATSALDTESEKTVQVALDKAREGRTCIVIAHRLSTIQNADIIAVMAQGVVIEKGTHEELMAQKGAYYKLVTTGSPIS
Chain of Alpha-1A adrenergic receptor (P35348 whole entry): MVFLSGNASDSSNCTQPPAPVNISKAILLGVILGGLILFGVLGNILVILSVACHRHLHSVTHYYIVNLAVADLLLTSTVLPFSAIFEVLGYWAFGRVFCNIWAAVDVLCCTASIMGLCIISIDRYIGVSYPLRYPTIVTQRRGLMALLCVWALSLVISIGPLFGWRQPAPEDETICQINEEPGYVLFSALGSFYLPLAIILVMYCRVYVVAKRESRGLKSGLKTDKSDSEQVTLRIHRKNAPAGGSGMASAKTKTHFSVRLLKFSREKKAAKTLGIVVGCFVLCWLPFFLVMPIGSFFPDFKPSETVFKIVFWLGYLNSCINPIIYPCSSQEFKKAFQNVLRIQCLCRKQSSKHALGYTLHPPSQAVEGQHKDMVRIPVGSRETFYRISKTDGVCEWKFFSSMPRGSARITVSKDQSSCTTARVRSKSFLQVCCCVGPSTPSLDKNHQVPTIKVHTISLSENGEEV

As a reminder, the pIC50 is the IC50 on a negative log10 scale, so that one unit is a factor of ten. In the case of `CC1(C)OC(=O)N([C@H]2CC[C@H](c3cnc(N)c(-c4ncccn4)c3)CC2)[C@H]1c1ccccc1`, the negative logarithm of the IC50 (pIC50) in data set [1] is < 4.31; in data set [2], < 4.31; at Mu-type opioid receptor, < 4.31; in data set [3], < 4.31; on Bile salt export pump, 4.96; in [5] it was < 4.31. The molecule further showed a pIC50 in data set [6] of 4.96. Further, in data set [4], the inhibition result was “inactive”.
The term IC50 denotes the point on the concentration scale where inhibition reaches its midpoint. As to `CC1(C)OC(=O)N(c2ccc(-c3cnc(N)c(-c4ncccn4)c3)cc2)[C@H]1c1ccccc1`, in the data set on Mus musculus, the inhibition entry was “Active”. Also, the inhibition result in [4] is “inactive”. Further, the IC50 on Tankyrase 1/2 came out at 0.233 µM. In addition, in data set [7], the concentration at 72 h is 22.1 µM.
